Drawing on patent US10717733B2, “Haloallylamine indole and azaindole derivative inhibitors of lysyl oxidases and uses thereof” (PHARMAXIS LTD., priority 2016, dated 2020), this text covers IC50 for three molecules.

Holding throughout (assay type): biochemical
The target in one experiment is Bovine LOX (Bos taurus (Bovine), UniProt P33072). In words: LOX inhibition, peroxidase-coupled Amplex Red amine oxidase assay. Particulars: 30 min preincubation at 37° C., putrescine substrate. The method in brief:
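Bovine LOX in 1.2 M urea, 50 mM sodium borate pH 8.2 with 1 μM mofegiline and 0.5 mM pargyline; putrescine at twice KM (e.g. 20 mM for LOX) with Amplex Red/HRP. Fluorescence (ex 565/em 590 nm) read kinetically over 30 min at 37–45 °C; IC50 from slopes.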

The next experiment addresses Human LOXL2 (Homo sapiens (Human), UniProt Q9Y4K0). In words: LOXL2 inhibition, peroxidase-coupled Amplex Red amine oxidase assay. As to conditions: 30 min preincubation at 37° C., putrescine substrate. The method in brief:
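Enzyme in 1.2 M urea, 50 mM sodium borate pH 8.2 with 1 μM mofegiline and 0.5 mM pargyline, preincubated 30 min at 37° C with compound (11-point CRC). Putrescine at twice KM (10 mM for LOXL2) with Amplex Red/HRP; fluorescence (ex 565, em 590) read kinetically 30 min; IC50 from slopes.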

The target of a further experiment is Recombinant human MAO-B (Homo sapiens (Human), UniProt P27338). Kind of experiment: Inhibition of human recombinant MAO-B. As to conditions: benzylamine 100 μM. The method in brief: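 Recombinant human MAO-B used as enzyme source (0.06 mg/mL, stated concentration). Run as for the human SSAO/VAP-1 assay, except benzylamine substrate at 100 μM.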

Molecules are shown by their SMILES. Where a name gives a salt, the structure may show the parent alone.

Chain of Human LOXL2 (Q9Y4K0 26-774): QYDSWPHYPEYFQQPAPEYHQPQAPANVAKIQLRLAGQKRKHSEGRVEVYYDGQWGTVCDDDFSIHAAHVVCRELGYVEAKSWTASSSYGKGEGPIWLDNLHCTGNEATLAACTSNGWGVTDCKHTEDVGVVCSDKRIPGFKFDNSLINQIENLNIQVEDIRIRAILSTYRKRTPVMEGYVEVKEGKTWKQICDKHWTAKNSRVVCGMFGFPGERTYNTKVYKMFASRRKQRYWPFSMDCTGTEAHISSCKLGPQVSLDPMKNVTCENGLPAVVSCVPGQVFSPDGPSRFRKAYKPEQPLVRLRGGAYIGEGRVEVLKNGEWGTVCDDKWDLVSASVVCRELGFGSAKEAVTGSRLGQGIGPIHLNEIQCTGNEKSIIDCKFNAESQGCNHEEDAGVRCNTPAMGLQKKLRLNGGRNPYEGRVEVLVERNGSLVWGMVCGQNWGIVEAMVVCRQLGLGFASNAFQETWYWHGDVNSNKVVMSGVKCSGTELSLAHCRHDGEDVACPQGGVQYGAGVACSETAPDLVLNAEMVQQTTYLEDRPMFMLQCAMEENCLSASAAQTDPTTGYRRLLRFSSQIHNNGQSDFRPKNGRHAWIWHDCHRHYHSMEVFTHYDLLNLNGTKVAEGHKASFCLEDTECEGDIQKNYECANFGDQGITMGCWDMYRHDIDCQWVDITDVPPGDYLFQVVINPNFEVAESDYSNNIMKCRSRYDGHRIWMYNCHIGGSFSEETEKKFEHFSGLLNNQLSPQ
Chain of Bovine LOX (P33072 170-418): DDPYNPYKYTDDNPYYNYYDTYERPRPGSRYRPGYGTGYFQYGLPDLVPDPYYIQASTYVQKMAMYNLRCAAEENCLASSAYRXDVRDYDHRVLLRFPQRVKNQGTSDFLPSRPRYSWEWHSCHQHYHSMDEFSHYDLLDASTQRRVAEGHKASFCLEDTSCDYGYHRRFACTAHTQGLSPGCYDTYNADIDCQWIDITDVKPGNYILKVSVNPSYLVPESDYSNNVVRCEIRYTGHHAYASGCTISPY
Chain of Recombinant human MAO-B (P27338 whole entry): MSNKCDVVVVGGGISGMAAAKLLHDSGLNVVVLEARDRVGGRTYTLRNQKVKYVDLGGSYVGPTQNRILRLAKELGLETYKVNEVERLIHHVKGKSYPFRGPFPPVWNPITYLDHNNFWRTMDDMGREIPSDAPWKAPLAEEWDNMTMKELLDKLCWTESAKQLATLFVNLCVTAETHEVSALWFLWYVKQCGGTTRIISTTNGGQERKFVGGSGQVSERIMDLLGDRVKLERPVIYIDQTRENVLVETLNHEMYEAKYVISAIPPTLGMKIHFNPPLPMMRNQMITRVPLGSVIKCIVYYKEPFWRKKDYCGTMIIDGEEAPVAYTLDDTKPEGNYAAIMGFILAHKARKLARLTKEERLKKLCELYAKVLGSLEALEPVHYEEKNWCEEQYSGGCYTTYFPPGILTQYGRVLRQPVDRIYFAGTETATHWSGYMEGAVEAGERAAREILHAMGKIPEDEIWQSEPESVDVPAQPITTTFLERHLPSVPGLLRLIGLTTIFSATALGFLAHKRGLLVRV

As usually defined, the IC50 is the midpoint of a concentration-inhibition curve. `CCOC(=O)c1ccc2c(c1)c(-c1cccc(S(=O)(=O)N(C)C)c1)c(C)n2C/C(F)=C/CN` [Compound 12, (Z)-ethyl 1-(4-amino-2-fluorobut-2-en-1-yl)-3-(3-(N,N-dimethylsulfamoyl)phenyl)-2-methyl-1H-indole-5-carboxylate]: the IC50 at Bovine LOX was above 0.3 µM; on Human LOXL2, below 0.3 µM; at Recombinant human MAO-B, above 3 µM.

`Cc1c(-c2cccc(S(=O)(=O)N(C)C)c2)c2ncccc2n1C/C(F)=C/CN` [Compound 25, (Z)-3-(1-(4-amino-2-fluorobut-2-en-1-yl)-2-methyl-1H-pyrrolo[3,2-b]pyridin-3-yl)-N,N-dimethylbenzenesulfonamide Dihydrochloride]: the results for the concentration for half-maximal inhibition (IC50) against Bovine LOX, against Human LOXL2 and on Recombinant human MAO-B were above 0.3 µM, below 0.3 µM and above 3 µM, respectively.

`Cc1ccc2c(n1)c(-c1cccc(S(C)(=O)=O)c1)c(C)n2C/C(F)=C/CN` [Compound 112, (Z)-4-(2,5-dimethyl-3-(3-(methylsulfonyl)phenyl)-1H-pyrrolo[3,2-b]pyridin-1-yl)-3-fluorobut-2-en-1-amine Dihydrochloride]: the IC50 against Bovine LOX was above 0.3 µM; against Human LOXL2 it was below 0.3 µM; at Recombinant human MAO-B it was above 3 µM.
